This note sets out measurements from patent EP4467141A1, “PYRAZOLO-QUINOLINES AS SELECTIVE INHIBITORS OF GENOTOXIC STRESS-INDUCED IKK/NF- KB PATHWAYS FOR CANCER THERAPY” (Max-Delbrück-Centrum für Molekulare Medizin in der …, priority 2023, dated 2024).

Experiment in all cases: Kinase panel study
What all share (format): biochemical

In one assay the target is T1, CLK2 (Homo sapiens, UniProt P49760).
T1 construct: purchased Thermo Fisher Scientific
The following applies: for inhibition at 1 µM: 1000nM; for IC50: in vitro kinase panel. As to the method: (§1) The Kinase panel study was entirely provided by Thermo Fisher Scientific using the two lead compounds MW01 and MW05 as well as their derivatives (MW01-E06, MW01-E10, MW01-E14, MW01-E18, MW05-E2, MW05-E3, MW05-E9 and MW05-E10. The experiment was performed using the ZLyte or Adapta protocol according to manufacturer standard operating procedures.
(§2) Based on their similar effects in our screen and molecular analysis, MW01 and MW05 were used in comparative target deconvolution studies seeking common targets despite their distinct structures. To eliminate previously identified kinases regulating NF-κB activity, such as IKK, as possible targets of MW01 and MW05, an in vitro kinase inhibition assay was performed. […] We next investigated if any of the shared kinase targets of MW01 and MW05 play a role in genotoxic stress-induced NF-κB activity and established several criteria to narrow down pathway-relevant targets. Considering the similar NF-κB inhibition phenotypes of both compounds, we hypothesized first that the target should be shared by both lead compounds. Second, based on the CaCo2 recovery values and experimental treatment concentration of 10 µM), the putative target kinase should have a low IC50 of, at most, 2000 nM for both lead compounds in the in vitro kinase panel (Fig. 2A). Based on these criteria alone, we arrived at a relatively short list of potential targets for further analysis, leaving only PIK3CG, PIK3C2G, and CLK2 (Fig. 2B). IC50 values for PIK3C2G by both lead compounds agreed best with these criteria, but RNA expression analysis indicates high tissue specificity as well as lack of expression of this kinase in our U2-OS model cell line, which we then eliminated from further analysis (Uhlén et al., 2015). […] Table 6: Percentage of inhibition of the indicated kinases by MW01 or MW05 at either 10 µM or 1 µM. n.d. = not determined. […]
(§3) To validate the structural backbones of MW01 and MW05 and leverage additional structures in discerning on- and off-target activity, we screened more than 30 structural derivatives for similar NF-κB pathway inhibition compared to our lead compounds following irradiation or TNF stimulation (Table 1 and 2). Several structural derivatives of each lead compound were identified which reduced p-p65 and NFKBIA expression in an irradiation-specific manner. (Fig 3A, B, C, Fig. 8). […] As expected for structurally similar derivatives, kinase inhibition profiles of active derivatives were similar to the respective lead compounds, validating the common structural backbones of each as kinase inhibitors. However, inhibition of several kinases was lost some derivatives of MW01 and MW05, including PI3K isoforms, adding further evidence that the NF-κB inhibition by our compounds is not mediated by inhibition of these kinases. […] Considering the phenotypic similarity between two structurally distinct lead compounds, the agreement of the derivatives with our kinase IC50 criteria, and significant results following siRNA knockdown of CLK2 and CLK4, we proceeded to further characterize our lead compounds.

In another assay the target is T2, CLK4 (Homo sapiens, UniProt Q9HAZ1).
T2 construct: purchased Thermo Fisher Scientific
T2 sequence (Q9HAZ1 whole entry): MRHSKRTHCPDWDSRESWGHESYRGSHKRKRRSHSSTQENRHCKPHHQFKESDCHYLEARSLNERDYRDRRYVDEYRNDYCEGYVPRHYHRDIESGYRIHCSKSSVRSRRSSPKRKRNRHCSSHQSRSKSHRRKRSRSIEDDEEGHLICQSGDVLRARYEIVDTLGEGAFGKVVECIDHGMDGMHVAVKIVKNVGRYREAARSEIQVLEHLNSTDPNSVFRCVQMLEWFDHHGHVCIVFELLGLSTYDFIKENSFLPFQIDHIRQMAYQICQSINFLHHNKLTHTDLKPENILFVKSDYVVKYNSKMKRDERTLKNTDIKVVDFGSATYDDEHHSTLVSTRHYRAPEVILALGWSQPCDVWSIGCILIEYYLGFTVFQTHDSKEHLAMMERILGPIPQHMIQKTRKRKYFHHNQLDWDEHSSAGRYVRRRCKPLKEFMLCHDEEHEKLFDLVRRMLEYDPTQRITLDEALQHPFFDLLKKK
As to the method: as §1, §2, §3

The next assay deals with T3, CLK1 (Homo sapiens, UniProt P49759).
T3 construct: purchased Thermo Fisher Scientific
How it is done: as §1, §2

Another assay addresses T4, CLK3 (Homo sapiens, UniProt P49761).
T4 construct: purchased Thermo Fisher Scientific
The settings on record: for CLK3 inhibition: in vitro kinase assay, isoform specificity; for inhibition at 10 µM: CLK3, compound at 10µM. As to the method:
The Kinase panel study was entirely provided by Thermo Fisher Scientific using the two lead compounds MW01 and MW05 as well as their derivatives (MW01-E06, MW01-E10, MW01-E14, MW01-E18, MW05-E2, MW05-E3, MW05-E9 and MW05-E10. The experiment was performed using the ZLyte or Adapta protocol according to manufacturer standard operating procedures. […]

Another assay deals with T5, PIP4K2A (Homo sapiens, UniProt P48426).
T5 construct: purchased Thermo Fisher Scientific
T5 sequence (P48426 1-406): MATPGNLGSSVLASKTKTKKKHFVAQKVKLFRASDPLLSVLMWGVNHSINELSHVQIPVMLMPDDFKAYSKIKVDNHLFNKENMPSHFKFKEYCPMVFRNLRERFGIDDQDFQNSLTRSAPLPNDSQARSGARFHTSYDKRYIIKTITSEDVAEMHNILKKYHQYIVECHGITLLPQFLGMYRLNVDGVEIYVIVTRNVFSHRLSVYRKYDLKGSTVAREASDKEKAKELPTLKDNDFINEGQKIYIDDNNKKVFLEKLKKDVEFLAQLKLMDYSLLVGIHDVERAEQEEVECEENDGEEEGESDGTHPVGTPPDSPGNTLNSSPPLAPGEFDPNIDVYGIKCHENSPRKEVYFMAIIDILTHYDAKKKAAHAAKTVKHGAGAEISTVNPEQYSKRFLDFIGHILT
The settings on record: for inhibition at 1 µM: 1000nM. As to the method: as §1
(§4) Based on their similar effects in our screen and molecular analysis, MW01 and MW05 were used in comparative target deconvolution studies seeking common targets despite their distinct structures. To eliminate previously identified kinases regulating NF-κB activity, such as IKK, as possible targets of MW01 and MW05, an in vitro kinase inhibition assay was performed. […] We next investigated if any of the shared kinase targets of MW01 and MW05 play a role in genotoxic stress-induced NF-κB activity and established several criteria to narrow down pathway-relevant targets. Considering the similar NF-κB inhibition phenotypes of both compounds, we hypothesized first that the target should be shared by both lead compounds. Second, based on the CaCo2 recovery values and experimental treatment concentration of 10 µM), the putative target kinase should have a low IC50 of, at most, 2000 nM for both lead compounds in the in vitro kinase panel (Fig. 2A). Based on these criteria alone, we arrived at a relatively short list of potential targets for further analysis, leaving only PIK3CG, PIK3C2G, and CLK2 (Fig. 2B). IC50 values for PIK3C2G by both lead compounds agreed best with these criteria, but RNA expression analysis indicates high tissue specificity as well as lack of expression of this kinase in our U2-OS model cell line, which we then eliminated from further analysis (Uhlén et al., 2015). […] Table 6: Percentage of inhibition of the indicated kinases by MW01 or MW05 at either 10 µM or 1 µM. n.d. = not determined.

In assay [1] the target is T6, PIK3CD/PIK3R1 (p11 0 delta/p85 alpha) (Homo sapiens, UniProt O00329).
T6 construct: purchased Thermo Fisher Scientific
T6 sequence (O00329 whole entry): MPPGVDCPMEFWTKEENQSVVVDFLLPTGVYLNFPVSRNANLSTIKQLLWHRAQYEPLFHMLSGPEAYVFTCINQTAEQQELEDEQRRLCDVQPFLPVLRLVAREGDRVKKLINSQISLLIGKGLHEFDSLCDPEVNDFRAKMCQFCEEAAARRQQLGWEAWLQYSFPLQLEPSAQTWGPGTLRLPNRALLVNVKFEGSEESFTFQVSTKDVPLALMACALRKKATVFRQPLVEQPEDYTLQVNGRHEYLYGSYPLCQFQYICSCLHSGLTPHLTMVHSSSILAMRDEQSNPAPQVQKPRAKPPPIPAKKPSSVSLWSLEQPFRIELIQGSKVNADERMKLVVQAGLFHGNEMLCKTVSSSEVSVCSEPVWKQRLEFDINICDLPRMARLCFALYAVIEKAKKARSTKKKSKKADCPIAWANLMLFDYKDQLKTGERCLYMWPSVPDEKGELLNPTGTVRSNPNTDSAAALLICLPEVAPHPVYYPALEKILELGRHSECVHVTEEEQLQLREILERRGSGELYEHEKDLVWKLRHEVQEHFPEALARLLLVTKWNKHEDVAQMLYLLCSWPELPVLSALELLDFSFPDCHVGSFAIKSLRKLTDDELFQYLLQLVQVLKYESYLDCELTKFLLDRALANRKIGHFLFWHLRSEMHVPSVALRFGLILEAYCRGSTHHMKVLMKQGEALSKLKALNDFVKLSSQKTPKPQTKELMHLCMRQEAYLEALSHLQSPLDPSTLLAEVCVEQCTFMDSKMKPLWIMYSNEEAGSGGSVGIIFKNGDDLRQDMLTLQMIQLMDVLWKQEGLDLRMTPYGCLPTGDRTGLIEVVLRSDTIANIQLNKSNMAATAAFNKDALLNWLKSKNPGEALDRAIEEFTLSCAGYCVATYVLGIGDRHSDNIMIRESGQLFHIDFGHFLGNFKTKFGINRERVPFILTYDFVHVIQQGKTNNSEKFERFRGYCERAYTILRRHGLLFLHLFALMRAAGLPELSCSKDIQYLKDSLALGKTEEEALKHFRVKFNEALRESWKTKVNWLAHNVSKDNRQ
T6 sequence (P27986 whole entry partner): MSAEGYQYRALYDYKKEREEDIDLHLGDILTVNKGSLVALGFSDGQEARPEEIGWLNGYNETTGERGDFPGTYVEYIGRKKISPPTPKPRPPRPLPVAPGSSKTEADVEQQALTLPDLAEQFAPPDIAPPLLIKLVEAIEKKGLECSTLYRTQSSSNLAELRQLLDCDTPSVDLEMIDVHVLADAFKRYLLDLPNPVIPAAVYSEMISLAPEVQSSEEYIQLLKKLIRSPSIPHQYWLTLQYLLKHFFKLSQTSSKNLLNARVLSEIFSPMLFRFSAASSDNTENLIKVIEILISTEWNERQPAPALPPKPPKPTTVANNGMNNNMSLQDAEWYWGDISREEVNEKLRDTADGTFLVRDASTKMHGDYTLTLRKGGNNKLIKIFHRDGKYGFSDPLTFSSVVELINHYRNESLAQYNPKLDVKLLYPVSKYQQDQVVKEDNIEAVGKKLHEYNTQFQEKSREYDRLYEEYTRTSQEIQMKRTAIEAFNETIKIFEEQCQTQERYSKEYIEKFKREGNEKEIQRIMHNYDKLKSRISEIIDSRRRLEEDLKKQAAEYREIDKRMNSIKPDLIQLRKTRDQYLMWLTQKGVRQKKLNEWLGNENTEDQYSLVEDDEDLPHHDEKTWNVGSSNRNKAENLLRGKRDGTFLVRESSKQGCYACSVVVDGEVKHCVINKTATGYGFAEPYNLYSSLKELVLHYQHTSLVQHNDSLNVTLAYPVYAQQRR
The following applies: for inhibition at 1 µM: 1000nM. How it is done: as §1, §4

A further assay has as its target T7, DYRK1B (Homo sapiens, UniProt Q9Y463).
T7 construct: purchased Thermo Fisher Scientific
The following applies: for inhibition at 1 µM: 1000nM. As to the method:
as §1, §4

The target in assay [2] is T8, PIK3CB/PIK3R2 (p11 0 beta/p85 beta) (Homo sapiens, UniProt P42338).
T8 construct: purchased Thermo Fisher Scientific
T8 sequence (P42338 whole entry): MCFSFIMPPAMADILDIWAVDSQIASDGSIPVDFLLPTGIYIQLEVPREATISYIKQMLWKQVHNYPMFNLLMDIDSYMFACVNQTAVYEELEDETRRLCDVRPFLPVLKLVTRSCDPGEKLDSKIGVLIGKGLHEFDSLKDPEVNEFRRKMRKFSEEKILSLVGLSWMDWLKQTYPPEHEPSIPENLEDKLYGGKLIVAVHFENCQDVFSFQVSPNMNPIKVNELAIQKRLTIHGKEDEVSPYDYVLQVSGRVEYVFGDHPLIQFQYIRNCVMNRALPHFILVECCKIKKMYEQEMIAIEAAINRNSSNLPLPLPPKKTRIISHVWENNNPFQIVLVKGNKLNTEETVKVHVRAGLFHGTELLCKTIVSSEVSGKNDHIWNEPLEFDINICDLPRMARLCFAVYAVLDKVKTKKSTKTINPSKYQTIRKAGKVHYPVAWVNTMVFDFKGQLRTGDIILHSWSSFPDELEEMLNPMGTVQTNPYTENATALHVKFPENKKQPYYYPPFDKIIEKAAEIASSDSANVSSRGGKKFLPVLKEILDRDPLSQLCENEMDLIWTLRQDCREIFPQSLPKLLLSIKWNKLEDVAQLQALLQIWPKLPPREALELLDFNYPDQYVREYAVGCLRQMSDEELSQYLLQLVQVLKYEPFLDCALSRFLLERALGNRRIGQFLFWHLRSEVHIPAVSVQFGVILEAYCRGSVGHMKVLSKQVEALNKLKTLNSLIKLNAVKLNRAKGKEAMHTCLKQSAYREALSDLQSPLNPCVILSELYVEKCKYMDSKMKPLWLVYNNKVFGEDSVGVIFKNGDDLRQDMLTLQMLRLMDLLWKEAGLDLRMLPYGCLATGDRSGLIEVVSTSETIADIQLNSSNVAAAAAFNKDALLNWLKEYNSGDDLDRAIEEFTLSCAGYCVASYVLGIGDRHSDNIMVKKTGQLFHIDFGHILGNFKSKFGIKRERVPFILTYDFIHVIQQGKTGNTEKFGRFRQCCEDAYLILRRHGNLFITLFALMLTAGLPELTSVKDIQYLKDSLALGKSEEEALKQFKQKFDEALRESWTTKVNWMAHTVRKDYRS
T8 sequence (O00459 whole entry partner): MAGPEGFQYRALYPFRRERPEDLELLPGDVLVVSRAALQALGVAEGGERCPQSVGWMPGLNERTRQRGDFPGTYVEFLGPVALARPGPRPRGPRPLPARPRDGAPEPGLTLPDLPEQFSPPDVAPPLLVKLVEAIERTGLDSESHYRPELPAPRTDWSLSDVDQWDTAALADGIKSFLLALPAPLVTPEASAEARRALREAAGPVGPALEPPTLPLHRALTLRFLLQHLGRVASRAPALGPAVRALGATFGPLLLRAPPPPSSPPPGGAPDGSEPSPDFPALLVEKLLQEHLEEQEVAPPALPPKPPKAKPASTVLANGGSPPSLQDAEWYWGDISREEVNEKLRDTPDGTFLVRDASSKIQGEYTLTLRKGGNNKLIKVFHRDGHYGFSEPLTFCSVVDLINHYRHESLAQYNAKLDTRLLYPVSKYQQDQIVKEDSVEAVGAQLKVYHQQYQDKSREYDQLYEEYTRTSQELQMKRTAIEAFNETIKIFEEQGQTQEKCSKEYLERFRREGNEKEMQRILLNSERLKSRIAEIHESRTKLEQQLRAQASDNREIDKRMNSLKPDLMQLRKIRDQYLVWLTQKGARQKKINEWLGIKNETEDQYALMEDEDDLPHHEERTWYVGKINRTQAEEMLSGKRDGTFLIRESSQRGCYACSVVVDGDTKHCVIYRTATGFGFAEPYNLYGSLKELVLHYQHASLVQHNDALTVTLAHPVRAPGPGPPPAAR
The settings on record: for inhibition at 1 µM: 1000nM. As to the method: as §1, §4

[3] abbreviates: first CLK2 line of the table, read-out: Percentage of inhibition.
The mark [4] stands for this setting: second CLK2 line of the table, read-out: Percentage of inhibition.
Setting [5] is: 10000nM, first CLK2 line of the table, read-out: Percentage of inhibition.
The mark [6] stands for this setting: 10000nM, second CLK2 line of the table, read-out: Percentage of inhibition.
The mark [7] stands for this setting: 10000nM, read-out: Percentage of inhibition.
[8] abbreviates: read-out: Percentage of inhibition.
Setting [9] is: CLK2, compound at 10µM, read-out: % of Inhibition.
Where [10] appears, read: CLK4, compound at 10µM, read-out: % of Inhibition.
Where [11] appears, read: CLK1, compound at 10µM, read-out: % of Inhibition.
The mark [12] stands for this setting: PIP4K2A, compound at 10µM, read-out: % of Inhibition.
Where [13] appears, read: PIK3CD/PIK3R1, compound at 10µM, read-out: % of Inhibition.
The mark [14] stands for this setting: DYRK1B, compound at 10µM, read-out: % of Inhibition.
Setting [15] is: PIK3CB/PIK3R2, compound at 10µM, read-out: % of Inhibition.

Where two headings read alike, the source gives them in different places.

T4 sequence (P49761 whole entry): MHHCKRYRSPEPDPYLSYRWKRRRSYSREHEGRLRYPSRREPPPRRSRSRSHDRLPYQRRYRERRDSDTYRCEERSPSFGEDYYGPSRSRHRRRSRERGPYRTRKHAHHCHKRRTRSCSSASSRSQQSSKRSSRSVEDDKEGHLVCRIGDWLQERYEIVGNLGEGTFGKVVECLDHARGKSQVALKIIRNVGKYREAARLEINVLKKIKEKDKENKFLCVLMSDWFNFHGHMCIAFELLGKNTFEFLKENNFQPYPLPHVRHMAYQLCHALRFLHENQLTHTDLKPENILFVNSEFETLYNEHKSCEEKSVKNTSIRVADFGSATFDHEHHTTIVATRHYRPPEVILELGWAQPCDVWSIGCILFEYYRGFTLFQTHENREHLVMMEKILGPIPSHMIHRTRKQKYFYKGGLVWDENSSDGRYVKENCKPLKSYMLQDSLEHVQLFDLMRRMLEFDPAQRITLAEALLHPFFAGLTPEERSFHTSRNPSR
T1 sequence (P49760 whole entry): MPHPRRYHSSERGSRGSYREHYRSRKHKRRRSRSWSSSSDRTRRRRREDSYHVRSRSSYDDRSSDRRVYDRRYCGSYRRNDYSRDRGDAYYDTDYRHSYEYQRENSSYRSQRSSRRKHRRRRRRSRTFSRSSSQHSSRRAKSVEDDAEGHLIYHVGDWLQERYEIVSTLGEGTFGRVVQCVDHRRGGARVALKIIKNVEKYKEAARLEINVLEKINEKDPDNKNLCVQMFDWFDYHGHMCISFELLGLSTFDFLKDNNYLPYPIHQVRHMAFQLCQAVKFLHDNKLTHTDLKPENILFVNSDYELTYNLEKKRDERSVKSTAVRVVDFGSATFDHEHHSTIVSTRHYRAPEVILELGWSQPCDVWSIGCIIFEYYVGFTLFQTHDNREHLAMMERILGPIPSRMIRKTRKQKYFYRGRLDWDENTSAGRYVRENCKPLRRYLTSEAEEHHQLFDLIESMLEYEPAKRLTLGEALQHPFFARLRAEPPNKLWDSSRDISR

`COc1ccc2c(c1OC)c(=O)n1c3ccc(O)cc3c3ccnc2c31` [MW01, 5-Hydroxy-10,11-dimethoxy-9H-benzo[c]indolo[3,2,1-ij][1,5]naphthyridin-9-one]: the inhibition (in general, the relative decrease from the control value, in per cent) at 1 µM is 78% on CLK2 (setting [3]); 78% at CLK2 (setting [4]); -8% at PIP4K2A (setting [8]); 79% in assay [1] (setting [8]); 62% on DYRK1B (setting [8]); 24% in assay [2] (setting [8]). Also, the inhibition at 10 µM on CLK2 (setting [5]) was 91%; on CLK2 (setting [6]), 91%; on CLK4 (setting [7]), 91%; at CLK1 (setting [7]) it was 88%; on PIP4K2A (setting [7]), -3%; in assay [1] (setting [7]) it was 89%. In addition, the figures for the inhibition at 10 µM (on DYRK1B (setting [7]); in assay [2] (setting [7])) were 82% and 66%, respectively. In addition, 360 nM corresponded to half-maximal inhibition at CLK2 (IC50). Further, the CLK3 inhibition result at CLK3 is “largely spare CLK3”.
Consider `COc1ccc2c(c1)c1ccnc3c4nc(OC)ccc4c(=O)n2c13` [MW01-E6, 5,15-dimethoxy-1,11,14-triazapentacyclo[10.7.1,0^2,7.0^8,^20.0^13,^18]icosa-2(7),3,5,8(20),9,11,13(18),14,16-nonaen-19-one], for which the inhibition at 10 µM on CLK2 (setting [9]) is 18%; on CLK4 (setting [10]), 58%; on CLK1 (setting [11]), 10%; on CLK3, 9%; on PIP4K2A (setting [12]) it was -4%; in assay [1] (setting [13]), 34%. In addition, the inhibition at 10 µM at DYRK1B (setting [14]) was found to be 20%; in assay [2] (setting [15]), 12%.
Take `O=c1c2cc(O)ccc2c2nccc3c4cc(O)ccc4n1c32` [MW01-E10, 5,16-dihydroxy-1,11-diazapentacyclo[10.7.1.0^2,^7.0^8,^20.0^13,^18]icosa-2(7),3,5,8(20),9,11,13(18),14,16-nonaen-19-one]: the inhibition at 10 µM at CLK2 (setting [9]) was 70%; on CLK4 (setting [10]), 99%; on CLK1 (setting [11]), 69%; on CLK3, 35%; on PIP4K2A (setting [12]), -2%; in assay [1] (setting [13]) it was 87%. For the same compound, the inhibition at 10 µM is 81% on DYRK1B (setting [14]) and 35% in assay [2] (setting [15]).
Consider `COc1ccc2c(c1)c1ccnc3c4ccnc(OC)c4c(=O)n2c13` [MW01-E14, 5,17-dimethoxy-1,11,16-triazapentacyclo[10.7.1.0^2,^7.0^8,^20.0^13,^18]icosa-2(7),3,5,8(20),9,11,13(18),14,16-nonaen-19-one], for which the inhibition at 10 µM at CLK2 (setting [9]) was 20%; on CLK4 (setting [10]), 67%; at CLK1 (setting [11]), 6%; against CLK3, 7%; on PIP4K2A (setting [12]), 53%; in assay [1] (setting [13]), 84%. Moreover, the inhibition at 10 µM turned out to be 23% on DYRK1B (setting [14]) and 12% in assay [2] (setting [15]).
In the case of `O=c1c2cnccc2c2nccc3c4cc(O)ccc4n1c32` [MW01-E18, 5-hydroxy-1,11,16-triazapentacyclo[10.7.1.0^2,^7.0^8,^20.0^13,^18]icosa-2(7),3,5,8(20),9,11,13(18),14,16-nonaen-19-one], the inhibition at 10 µM on CLK2 (setting [9]) was 70%; on CLK4 (setting [10]), 98%; at CLK1 (setting [11]), 61%; on CLK3 it was 35%; on PIP4K2A (setting [12]) it was -1%; in assay [1] (setting [13]), 77%. The inhibition at 10 µM on DYRK1B (setting [14]) was determined as 68%; in assay [2] (setting [15]), 63%.
In the case of `COc1ccc2cc3c(N)nn(C(=O)c4cccc(N(C)C)c4)c3nc2c1` [MW05, (3-Amino-7-methoxypyrazolo[3,4-b]quinolin-1-yl)-[3-(dimethylamino)phenyl]methanone], the inhibition at 1 µM was 40% at CLK2 (setting [3]); 40% at CLK2 (setting [4]); -10% at PIP4K2A (setting [8]); 40% in assay [1] (setting [8]); 28% at DYRK1B (setting [8]); 15% in assay [2] (setting [8]). The inhibition at 10 µM at CLK2 (setting [5]) is 86%; on CLK2 (setting [6]) it was 72%; at CLK4 (setting [7]), 94%; at CLK1 (setting [7]), 73%; on PIP4K2A (setting [7]), -9%; in assay [1] (setting [7]) it was 77%. The inhibition at 10 µM was determined as 69% on DYRK1B (setting [7]) and 64% in assay [2] (setting [7]). Also, the IC50 – broadly, the concentration that gives 50% inhibition – at CLK2 came out at 1440 nM. In addition, on CLK3, the CLK3 inhibition result is “largely spare CLK3”.
For `COc1ccc2nc3c(cc2c1)c(N)nn3C(=O)c1cccc(N(C)C)c1` [MW05-E2, 1-[3-(dimethylamino)benzoyl]-6-methoxy-1H-pyrazolo[3,4-b]quinolin-3-amine], the inhibition at 10 µM is 74% at CLK2 (setting [9]); 75% on CLK4 (setting [10]); 16% on CLK1 (setting [11]); 5% at CLK3; -6% on PIP4K2A (setting [12]); 28% in assay [1] (setting [13]). The results for the inhibition at 10 µM (at DYRK1B (setting [14]); in assay [2] (setting [15])) were 84% and 7%, respectively. Further, on CLK2 (in vitro kinase assay), the CLK2 inhibition entry is “inhibited CLK2”.
